Test results published in patent US20050060764A1, “Mouse model for bone metabolism” (priority 2003, published 2005).
Strand notation (5' to 3'): a small letter for the sugar, then the base; units joined by * are phosphorothioate-linked, units joined directly phosphodiester-linked; [ ] holds rarer units or linkages, { } end groups; capitals alone tell only the bases. e = 2'-O-(2-methoxyethyl) (MOE); [5mC] = 5-methylcytosine; d = 2'-deoxy (DNA)

B1: PTH alone (peptide, UniProt P01270 32-115, looked up)
Parathyroid hormone: SVSEIQLMHNLGKHLNSMERVEWLRKKLQDVHNFVALGAPLAPRDAGSQRPRKKEDNVLVESHEKSLGEADKADVNVLTKAKSQ

Legend:
mouse RANKL mRNA [1] = test: Antisense inhibition of mouse RANKL mRNA in C2C12 cells: dose response (Table 5); assay type: cell-based; settings: relative to untreated control
Protocol: (§1) Cells were seeded into 24-well plates (Falcon-353047 at a density of ˜10,000 cells/cm^2 for use in antisense oligonucleotide transfection.
(§2) Cells are treated and data are obtained in triplicate. […] Cells were harvested 16-24 hours after oligonucleotide treatment.
(§3) Probes and primers to mouse RANKL were designed to hybridize to a mouse RANKL sequence, using published sequence information (GenBank accession number AF013170.1, incorporated herein as SEQ ID NO:ll). For mouse RANKL the PCR primers were: • forward primer: […] (SEQ ID NO:12) • reverse primer: […] (SEQ ID NO: 13) and • the PCR probe was: FAM-[…]-TAMRA (SEQ ID NO: 14) where FAM is the fluorescent reporter dye and TAMRA is the quencher dye. For mouse GAPDH the PCR primers were: • forward primer: […](SEQ ID NO:15) • reverse primer: […](SEQ ID NO:16) and the • PCR probe was: 5′ JOE-[…]-TAMRA 3′ (SEQ ID NO: 17) where JOE is the fluorescent reporter dye and TAMRA is the quencher dye.
In accordance with the present invention, a subset of the antisense oligonucleotides in Example 16 was further investigated in dose-response studies. The oligonucleotides used in this investigation were ISIS 180812 (SEQ ID NO: 178), ISIS 180814 (SEQ ID NO: 180), ISIS 180819 (SEQ ID NO: 185), ISIS 180828 (SEQ ID NO: 194) and the control oligonucleotide ISIS 101757 ([…], SEQ ID NO: 355). […] All cytidine residues are 5-methylcytidines.
C2C12 cells were treated with the oligonucleotides at 10, 50, 75, 100, and 150 nM as described in other examples herein. […] The results are expressed as percent inhibition relative to the untreated control. The data, shown in Table 5, are averages from two experiments and illustrate the oligonucleotides of the present invention are able to downregulate RANKL mRNA expression in a dose-dependent manner.

mouse RANKL mRNA [2] = test: Antisense inhibition of mouse RANKL mRNA levels in C2C12 cells, quantitative real-time PCR (Table 2); assay type: cell-based; set-up: concentration or dose not given beside the values; settings: averages from three experiments
Protocol: as §1, §2
PCR reagents were obtained from Invitrogen Corporation, (Carlsbad, Calif.).
as §3
In accordance with the present invention, a second series of antisense compounds was designed to target different regions of the mouse RANKL RNA, using published sequences (GenBank accession number AF013170.1, incorporated herein as SEQ ID NO: 11). […] All cytidine residues are 5-methylcytidines. […] If present “N.D.” indicates “no data”.

rat RANKL mRNA = test: Antisense inhibition of rat RANKL mRNA levels in UMR-106 cells, quantitative real-time PCR (Table 3); assay type: cell-based; set-up: concentration or dose not given beside the values; settings: averages from three experiments
Outline: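 UMR-106 cells transfected with antisense oligonucleotides (5-methylcytidine throughout) in triplicate, harvested 16-24 h after treatment. RANKL mRNA quantified by real-time RT-PCR with a FAM/TAMRA probe, using rat GAPDH (JOE/TAMRA probe) as the reference.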

[3] = Serum calcium concentration 24 hours after PTH infusion in mice treated with RANKL antisense oligonucleotides (Table 10); assay type: in vivo, mouse; settings: mice
Protocol: In accordance with the present invention, the effect of antisense oligonucleotide inhibition on PTH-induced serum calcium concentration increase was measured in mice. The serum calcium concentration in mice was measured as a function of antisense oligonucleotide dose. Calcitonin, a known bone antiresorptive agent, was used as a control for antiresorptive activity.
Female Swiss-Webster (5-8 wks old) mice fed a low-calcium diet were dosed subcutaneously for two weeks with either the oligonucleotides ISIS 180819 (SEQ ID NO: 185) or 180814 (SEQ ID NO: 180) at concentrations of 5 mg/kg, 15 mg/kg, 30 mg/kg, or 40 mg/kg. A control group of mice were treated with calcitonin (400 ng) plus PTH (1 ug/100 g/6 hr), PTH alone (1 ug/100 g/6 hr) or saline. Treatment with oligonucleotides was followed with infusion of PTH by subcutaneously implanted mini-pumps at a dose of 1 ug/100 g/6 hr. After 24 hours of PTH infusion (total PTH delivery of 4 ug/100 g), the mice were sacrificed and the serum calcium concentration was measured with the Sigma Diagnostics Calcium Kit (Sigma-Aldrich). The data, summarized in Table 10 are averages from eight mice. Percent mRNA inhibition is normalized to PTH alone treatment.

[4] = Serum calcium concentration after PTH infusion in mice: specificity and dose response of RANK antisense oligonucleotide (Table 15); assay type: in vivo, mouse; settings: for serum calcium: then 24 h PTH
Protocol: (§4) In accordance with the present invention, the specificity of RANK inhibition by a RANK antisense oligonucleotide was compared to that of an 8-base pair mismatch oligonucleotide.
(§5) ISIS 181080 ([…], SEQ ID NO: 357) is an antisense oligonucleotide targeted to mouse RANK. ISIS 208565 ([…], SEQ ID NO: 358) is an 8-base pair mismatch oligonucleotide. […] All cytidine residues are 5-methylcytidines.
(§6) Female Swiss-Webster mice (5-8 wks old) fed a low-calcium diet were treated for two weeks with either ISIS 181080 or ISIS 208565. The dose of oligonucleotide was either 40 mg/kg, 30 mg/kg, 20 mg/kg, or 10 mg/kg. After the 2-week treatment with oligonucleotides, the mice were infused with PTH by subcutaneously implanted mini-pumps at a dose of 4 ug/100 g over 24 hours. A group of control mice were dosed with either saline, PTH alone (1 ug/100 g/6 hr) or calcitonin (400 ng) plus PTH (1 ug/100 g/6 hr). After 24 hours of PTH infusion (total PTH delivery of 4 ug/100 g), the mice were sacrificed and measurements were made of serum calcium with the Sigma Diagnostics Calcium Kit (Sigma-Aldrich) and RANK mRNA expression in proximal tibia (as described in other examples herein). The results shown in Table 15 are the average from four mice per group. Percent inhibition of RANK mRNA is normalized to PTH treatment alone. […] The data also illustrate that these effects are occurring due to an antisense mechanism.

RANK mRNA = test: Antisense inhibition of RANK mRNA expression in proximal tibia after PTH infusion in mice: specificity and dose response (Table 15); assay type: in vivo, mouse; settings: for RANK mRNA % inhibition (normalized to PTH): then 24 h PTH, proximal tibia
Protocol: as §4, §5, §6

[5] = Serum calcium after RANK antisense oligonucleotide treatment and PTH infusion: time course (Table 13); assay type: in vivo, mouse; settings: control mice, no oligonucleotide; PTH 1 ug/100 g/6 hr 24 h, calcitonin (400 ug)
Protocol: In accordance with the present invention, ISIS 181071 was administered to mice for different time periods to evaluate its ability to inhibit RANK expression and PTH-induced serum calcium concentration increase as a function of oligonucleotide treatment time.
Female Swiss-Webster mice (5-8 wks old) were fed a low-calcium diet and received daily subcutaneous injections of 30 mg/kg of ISIS 181071 (SEQ ID NO: 356) for 2, 3, 5, 7, 10, 14, or 21 days. At the end of the oligonucleotide treatment period, mice were infused with PTH by subcutaneously implanted mini-pumps at a dose of 1 ug/100 g/6 hr. A group of control mice were dosed with either saline, PTH alone (1 ug/100 g/6 hr) or calcitonin (400 ug) plus PTH (1 ug/100 g/6 hr). Following 24 hours of PTH infusion (total PTH delivery of 4ug/100 g), the mice were sacrificed and measurements were made of serum calcium with the Sigma Diagnostics Calcium Kit (Sigma-Aldrich) and RANK mRNA expression in the proximal tibia (as described in other examples herein). Percent RANK mRNA inhibition is normalized to PTH alone treatment.

[6] = mice, two weeks 10, 20, 30 or 40 mg/kg, 24 hours PTH infusion

Molecule	% Inhibition of RANKL mRNA (mouse RANKL mRNA [1]; 50 nM oligonucleotide)	% Inhibition of RANKL mRNA (mouse RANKL mRNA [1]; 100 nM oligonucleotide)	% INHIB (inhibition of mouse RANKL mRNA levels) (mouse RANKL mRNA [2])	% INHIB (inhibition of rat RANKL mRNA levels) (rat RANKL mRNA)	further results
101757 (antisense eA*eG*eG*eT*eG*d[5mC]*dT*d[5mC]*dA*dG*dG*dA*d[5mC]*dT*d[5mC]*e[5mC]*eA*eT*eT*eT) [compound 101757]	17%	13%			
180802 (antisense eG*e[5mC]*eT*e[5mC]*eG*dA*dA*dA*dG*dT*dA*d[5mC]*dA*dG*dG*eA*eA*e[5mC]*eA*eG) [compound 180802]			79%	40%	
180807 (antisense eA*eG*e[5mC]*eA*eA*dA*dT*dG*dT*dT*dG*dG*d[5mC]*dG*dT*eA*e[5mC]*eA*eG*eG) [compound 180807]			74%	48%	
180809 (antisense eG*eG*eA*eT*eT*dT*dT*dG*dA*dT*dG*d[5mC]*dT*dG*dG*eT*eT*eT*eT*eA) [compound 180809]			53%	57%	
180812 (antisense eT*e[5mC]*e[5mC]*eG*eG*dA*dT*d[5mC]*d[5mC]*dA*dG*d[5mC]*dA*dG*dG*eG*eA*eA*eG*eG) [compound 180812]	5%	20%	47%		% Inhibition of RANKL mRNA (mouse RANKL mRNA [1]; 10 nM oligonucleotide): 0%; % Inhibition of RANKL mRNA (mouse RANKL mRNA [1]; 75 nM oligonucleotide): 13%; % Inhibition of RANKL mRNA (mouse RANKL mRNA [1]; 150 nM oligonucleotide): 45%
180814 (antisense eG*eT*e[5mC]*eT*eT*dA*d[5mC]*dA*d[5mC]*dA*dT*dG*dT*dA*dT*eA*eG*eA*e[5mC]*eA) [compound 180814]	14%	70%	66%		% Inhibition of RANKL mRNA (mouse RANKL mRNA [1]; 10 nM oligonucleotide): 12%; % Inhibition of RANKL mRNA (mouse RANKL mRNA [1]; 75 nM oligonucleotide): 61%; % Inhibition of RANKL mRNA (mouse RANKL mRNA [1]; 150 nM oligonucleotide): 81%; PTH-induced increase in serum calcium concentration ([3]; s.c. two weeks 5, 15, 30 or 40 mg/kg, 24 hours PTH infusion): lessen the PTH-induced increase in serum calcium concentration
180828 (antisense eT*eT*eT*eA*eT*dT*dT*dT*dG*d[5mC]*dT*dT*dG*d[5mC]*dA*eT*eA*eG*eT*eT) [compound 180828]	43%	31%	44%		% Inhibition of RANKL mRNA (mouse RANKL mRNA [1]; 10 nM oligonucleotide): 31%; % Inhibition of RANKL mRNA (mouse RANKL mRNA [1]; 75 nM oligonucleotide): 23%; % Inhibition of RANKL mRNA (mouse RANKL mRNA [1]; 150 nM oligonucleotide): 40%
GAGCTCCCGGACCCTGAGGC (listed as DNA, chemistry not given here) [ISIS 181080, antisense oligonucleotide targeted to mouse RANK]					serum calcium ([4]; 10 mg/kg two weeks): 23 mg/dL; serum calcium ([4]; 20 mg/kg two weeks): 17 mg/dL; serum calcium ([4]; 30 mg/kg two weeks): 15 mg/dL; serum calcium ([4]; 40 mg/kg two weeks): 16 mg/dL; PTH-induced rise in serum calcium concentration [4, 6]: lessens the PTH-induced rise in serum calcium concentration; RANK mRNA % inhibition (normalized to PTH) (RANK mRNA; 10 mg/kg two weeks): 47%; RANK mRNA % inhibition (normalized to PTH) (RANK mRNA; 20 mg/kg two weeks): 38%; RANK mRNA % inhibition (normalized to PTH) (RANK mRNA; 30 mg/kg two weeks): 48%; RANK mRNA % inhibition (normalized to PTH) (RANK mRNA; 40 mg/kg two weeks): 65%; expression of RANK mRNA in proximal tibia (RANK mRNA; [6]): inhibits expression of RANK mRNA in vivo
agcaaatgttggcgtacagg (antisense eA*eG*e[5mC]*eA*eA*dA*dT*dG*dT*dT*dG*dG*d[5mC]*dG*dT*eA*e[5mC]*eA*eG*eG) [ISIS 180807, 2′-MOE gapmer targeted to mouse and rat RANKL]			at least 40%	at least 40%	
calcitonin [reference compound]					inhibition of PTH-induced serum calcium concentration ([3]; PTH infusion, n=8): 66 % inhibition
gctcgaaagtacaggaacag (antisense eG*e[5mC]*eT*e[5mC]*eG*dA*dA*dA*dG*dT*dA*d[5mC]*dA*dG*dG*eA*eA*e[5mC]*eA*eG) [ISIS 180802, 2′-MOE gapmer targeted to mouse and rat RANKL]			at least 40%	at least 40%	
ggattttgatgctggtttta (antisense eG*eG*eA*eT*eT*dT*dT*dG*dA*dT*dG*d[5mC]*dT*dG*dG*eT*eT*eT*eT*eA) [ISIS 180809, 2′-MOE gapmer targeted to mouse and rat RANKL]			at least 40%	at least 40%	
B1					Serum calcium concentration [5]: 21 mg/dL
